# Laboratory results: article PMC9292024 (The New Phytologist, 2021)
# Columns and labels:
# SbMAX1d = biological target: T1, SbMAX1d (Sorghum bicolor, UniProt A0A809QVY0); experiment: yeast microsome conversion, LC-MS/MS; type: biochemical; settings: 33 μM rac-CL, 500 μM NADPH, 28°C, 1 h
# T1 sequence (A0A809QVY0 1-539): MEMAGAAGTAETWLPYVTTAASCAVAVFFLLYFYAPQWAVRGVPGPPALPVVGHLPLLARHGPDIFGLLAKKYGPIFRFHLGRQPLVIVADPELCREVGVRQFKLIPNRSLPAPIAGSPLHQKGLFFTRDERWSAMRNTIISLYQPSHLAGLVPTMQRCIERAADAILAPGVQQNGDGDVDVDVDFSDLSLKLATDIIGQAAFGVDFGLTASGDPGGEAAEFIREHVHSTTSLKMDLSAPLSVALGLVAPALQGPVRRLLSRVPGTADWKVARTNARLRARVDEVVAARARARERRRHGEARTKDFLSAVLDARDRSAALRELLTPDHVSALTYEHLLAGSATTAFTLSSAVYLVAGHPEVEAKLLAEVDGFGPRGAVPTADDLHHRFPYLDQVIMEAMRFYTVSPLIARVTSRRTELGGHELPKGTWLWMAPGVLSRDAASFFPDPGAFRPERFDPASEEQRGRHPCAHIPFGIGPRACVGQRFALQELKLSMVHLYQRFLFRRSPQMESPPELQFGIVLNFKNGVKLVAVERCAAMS
# SbMAX1c = biological target: T2, SbMAX1c (Sorghum bicolor, UniProt A0A809Q895); experiment: yeast microsome conversion, LC-MS/MS; type: biochemical; settings: 33 μM rac-CL, 500 μM NADPH, 28°C, 1 h
# T2 sequence (A0A809Q895 1-545): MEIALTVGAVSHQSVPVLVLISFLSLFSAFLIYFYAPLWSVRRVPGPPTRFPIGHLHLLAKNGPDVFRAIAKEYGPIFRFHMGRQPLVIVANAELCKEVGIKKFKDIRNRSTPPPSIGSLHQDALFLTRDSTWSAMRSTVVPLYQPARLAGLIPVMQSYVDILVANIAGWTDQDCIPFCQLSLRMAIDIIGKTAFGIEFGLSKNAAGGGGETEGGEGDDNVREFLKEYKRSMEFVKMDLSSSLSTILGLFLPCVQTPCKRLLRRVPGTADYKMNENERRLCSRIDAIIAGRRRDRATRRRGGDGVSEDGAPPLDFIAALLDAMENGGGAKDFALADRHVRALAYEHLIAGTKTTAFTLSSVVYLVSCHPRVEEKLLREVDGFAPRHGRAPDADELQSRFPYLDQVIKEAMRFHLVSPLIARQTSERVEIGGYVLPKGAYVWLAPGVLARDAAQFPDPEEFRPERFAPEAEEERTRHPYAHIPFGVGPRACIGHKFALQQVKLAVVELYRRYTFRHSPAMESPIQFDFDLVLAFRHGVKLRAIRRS
structure (smiles),measurement,setting,value
CC1=CC(O/C=C(C)\C=C\C2=C(C)CCCC2(C)C)OC1=O (racemic) [rac‐CL],"yeast microsome conversion, LC-MS/MS",SbMAX1d,"expressing SbMAX1b, SbMAX1c, or SbMAX1d after incubation with rac‐CL"
same,"yeast microsome conversion, LC-MS/MS",SbMAX1c,"expressing SbMAX1b, SbMAX1c, or SbMAX1d after incubation with rac‐CL"
